Assay results from patent US8697840B2, “Peptide inhibition of lung epithelial apoptosis and pulmonary fibrosis” (Board of Regents, The University of Texas System, priority 2008, dated 2014).

What was measured:
p53 = assay: Western blot of lung homogenates of bleo-treated mice: p53; type: in vivo, mouse; conditions: 40 μg bleomycin intranasally, 10 mM peptide i.p. by 0.1 ml osmotic pump after 24 h, day 7
Description: (§1) Mice were treated intranasally with 50 μl saline (SAL; control) or an equal volume of a 40 μg bleomycin solution (Bleo). After 24 h, 10 mM PP-1 (“Bleo+PP-1”) or control peptide (Bleo+CP-1) were given intraperitoneally using a 0.1 ml osmotic pump. Lungs were excised on day 7, bronchoalveolar lavage (BAL) fluid (“B”), lung homogenates (“H”) and membrane proteins (uPAR) were analyzed by Western blotting using antibodies specific for the murine proteins. (The same blot (“H”) was then stripped and analyzed for β-actin confirm equivalent loading of the lanes)
(§2) Mice were treated intranasally with 50 μl saline or an equal volume of a 40 μg bleomycin solution. After 24 h, 10 mM PP-1 or the same concentration of control peptide CP-1 were given intraperitoneally using a 0.1 ml osmotic pump. Lungs were excised on day 7.
Lung tissue was chopped into small pieces with fine scissors and rinsed 3× with PBS. The tissues were then homogenized in 1 ml of extraction buffer (25 mM Tris-HCl, pH 7.9. 0.5 mM EDTA and 0.1 mM PMSF) and the homogenate was centrifuged at 12,000 g for 15 min at 4° C. […] Protein content was measured using a BioRad protein assay kit. […] Protein was detected by enhanced chemiluminescence (ECL). […]
(§3) Mice were treated intranasally with saline (controls) are indicated (SAL). […] (The same blot (H) was later stripped and analyzed for β-actin confirm equivalent loading of the lanes)

uPAR = assay: Western blot of lung membrane proteins of bleo-treated mice: uPAR; type: in vivo, mouse; conditions: 40 μg bleomycin intranasally, 10 mM peptide i.p. by 0.1 ml osmotic pump after 24 h, day 7
Description: as §1, §2
After preparation of the cytosolic extract, above, the pellet obtained after the initial centrifugation was resuspended in a membrane extraction buffer containing β-D-glucopyranoside and the suspension was homogenized for 5 to 10 min. […] The resulting clarified supernatant was analyzed for uPAR expression by Western blotting with anti-uPAR antibody and detected by ECL.
as §3

[1] = tested on: bleomycin-induced lung epithelial cell (LEC) apoptosis; assay: TUNEL staining for apoptosis of lung sections of bleo-treated mice; type: in vivo, mouse; conditions: for Lung epithelial cell apoptosis: appearance of cells / Lung epithelial cell apoptosis: cell death: bleo-treated animals, peptide one day after bleo; for Lung epithelial cell apoptosis: appearance of cells: lung tissue day 21; for Lung epithelial cell apoptosis: cell death: lung tissue day 21, TUNEL; for apoptosis (TUNEL positive cells): peptide 4.5 μM i.p. on day 1 and 2, bleomycin 40 μg/50 μl intranasal on day 2, 24, 48 and 72 h
Description: The mice were sacrificed 24, 48 and 72 h later. Lungs were excised, inflated and fixed in formalin, and […] sections were analyzed by TUNEL staining. […]

[2] = tested on: bleo-induced lung injury in the mouse; assay: Lung hydroxyproline (collagen deposition) after bleo-induced lung injury; type: in vivo; conditions: for lung hydroxyproline levels: 50 μg Bleo intranasally, 10 mM peptide in 0.1 ml osmotic pump i.p. one day later, lungs after 21 days
Description: FIGS. 10A and 10B are graphs showing the effect of PP-1 on fibrosis following bleo-induced lung injury in the mouse. […] 24 h after bleo, 0.1 ml osmotic pump filled with 10 mM PP-1 (designated “Bleo+PP” in Figures) or CP1 control scrambled peptide (“Bleo+CP1”) were implanted intraperitoneally. Lungs were harvested after 21 days, homogenized and the homogenates were subjected to the analysis of hydroxyproline or desmosine levels.
Anesthetized mice received intranasal bleomycin HCl solution containing 40 μg/50μl in sterile saline solution. After 24 h, 7 days or 14 days 10 mM PP-1 (“Bleo+PP-1”) or control peptide (Bleo+CP-1) were given ip using a 0.1 ml osmotic pump. Mice were sacrificed and lungs excised 21 days later. Lung homogenates were analyzed for hydroxyproline. Results are expressed a % of control hydroxyproline concentration.
Anesthetized mice received intranasal bleomycin HCl solution containing 40 μg/50 μl in sterile saline solution. After day 7, 10 mM peptide PP-2 (“Bleo+PP-2”) or control peptide (“Bleo+CP-2) were given intraperitoneally using a 0.1 ml osmotic pump. Lungs were excised after 21 days, lungs were homogenized and the homogenates were analyzed for hydroxyproline. Results are expressed a % of control hydroxyproline concentration.
The hPro content of the whole mouse lungs tissues were measured using the technique of Woessner J F, 1961, Arch. Biochem. Biophys. 93:440-7). Lung tissue from each animal was homogenized in 1.0 ml of extraction buffer. One ml 12N HCl was added, and the samples were hydrolyzed at 110° C. for 24 h. After cooling, 5 μl of the samples were mixed with 5 μl of citrate-acetate buffer (5% citric acid, 1.2% glacial acetic acid, 7.25% sodium acetate and 3.4% sodium hydroxide) and 100 μl of chloramine-T solution (1.4% chloramine-T, 10% N-propanol, and 80% citrate acetate buffer) in 96 well plates. The mixture was incubated for 20 min at room temperature. A total of 100 μl of Ehrlich's solution (2.5 g p-dimethylaminobenzaldehyde added to 9.3 ml of n-propanol and 3.9 ml of 70% perchloric acid) was added to each well and the plates incubated at 65° C. for 18 min. The absorbance of each sample was measured at 550 nm. Standard curves were generated for each experiment using a known concentration of reagent hPro. Results were expressed as % changes in hPro content (with total hPro content of saline-treated control mouse lungs considered 100%).
Lungs were harvested after 21 days, homogenized and the homogenates were subjected to the analysis of hydroxyproline as above (FIG. 10A) or desmosine (FIG. 10B). The effect of PP-1 on fibrosis in bleo-induced mouse lung injury was evaluated. Mice were treated with saline or 50 μg Bleo intranasally were implanted one day later with, 0.1 ml osmotic pumps i.p. The pumps were filled with either 10 mM (2.92 mg/100 μl) PP-1 (“Bleo+PP-1”) or control scrambled peptide CP-1 (“Bleo+CP-1”).

[3] = tested on: bleo-induced DNA fragmentation; assay: DNA fragmentation of genomic DNA from mouse lung extracts; type: in vivo; conditions: i.p. 0.1 ml osmotic minipump, 10 mM peptide, one day after intranasal bleo; lungs after 16 days
Description: Alternatively, PP-1 or CP-1 were administered in a continuous manner by i.p. implantation of an 0.1 ml osmotic minipump filled with PP-1 or CP-1 (10 mM or 2.92 mg/100 μl) one day after intranasal instillation of bleo. Lungs were harvested after 16 days. Total dose administered over that period was about 147 mg/kg. The apoptotic scores were calculated by counting the number of apoptotic cells in each field. Genomic DNA was isolated from saline, bleo, Bleo+PP-1 or Bleo+CP-1 mouse lung extracts, and subjected to DNA fragmentation.

## Bleomycin
p53
  p53 expression in lung homogenates: increased
uPAR
  uPAR levels in lung (membrane proteins): suppression
[1]
  Lung epithelial cell apoptosis: appearance of cells: Fibrotic cells,
  Lung epithelial cell apoptosis: cell death: 80% cell death
  apoptosis (TUNEL positive cells): increased apoptosis (TUNEL positive cells) as early as 24 h after exposure
[2]
  lung hydroxyproline levels: significant increase in lung hydroxyproline or desmosine levels

## DGIWKASFTTFTVTKYWFYR [PP-1, residues 82-101 of human Cav-1, the caveolin-1 scaffolding domain]
p53
  p53 expression in lung homogenates: inhibited the increased p53 and PAI-1 expression
uPAR
  uPAR levels in lung (membrane proteins): enhanced the suppressed uPA and uPAR levels
[1]; bleo 50 μg/ml intranasal, peptide intranasally 3.35 μM (375 μg/50 μl) on day 2, 4 and 6, lungs after 21 days
  bleo-induced mouse lung injury (TUNEL staining for apoptosis): prevented bleo-induced mouse lung injury in vivo
[1]
  Lung epithelial cell apoptosis: appearance of cells: No fibrosis,
  Lung epithelial cell apoptosis: cell death: 12% cell
  apoptosis (TUNEL positive cells): reversed bleomycin-induced apoptosis
[1]; conclusion from Table 3, day 21
  protection of LECs from bleo-induced lung injury: > 90%
[1]; i.p. 0.1 ml osmotic minipump, 10 mM peptide, one day after intranasal bleo, lungs after 16 days
  bleo-induced LEC apoptosis (apoptotic scores): protect against bleo-induced LEC apoptosis
[3]
  bleo-induced DNA fragmentation: protect against bleo-induced LEC apoptosis and DNA fragmentation
[2]
  lung hydroxyproline levels: significantly reduced, to normal levels
[2]; bleomycin 40 μg/50 μl intranasal, 10 mM peptide i.p. osmotic pump after 24 h, 7 days or 14 days, lungs 21 days
  bleomycin-induced collagen deposition (hydroxyproline, % of control): significantly inhibited bleomycin-induced collagen deposition and lung fibrosis
